{"source": "PubChem BioAssay AID1963840", "about": "(Molecular Pharmacology Branch, DTP, NCI, 2024)", "test_system": "695427-040-R-J1-PDC complex spheroid viability", "assay": "Anticancer human tumor 695427-040-R-J1-PDC patient-derived colon adenocarcinoma cell line growth inhibition [POLQ]", "conditions": "for IC50: curve of first compound; for viability, T/C: stronger effect = lower value", "summary_of_the_method": "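Three-cell-type spheroids modelling solid tumor plus stroma served as the readout system; POL inhibitors were tested individually and in combination, concentration ranges set by clinical Cmax where known.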"}
{"molecule": "CC(C)n1c(=O)n(C)c2cnc3cc(F)c(-c4ccc(OCCCN5CCCCC5)nc4)cc3c21", "note": "+ Nc1ccc(C#CCN(C(=O)Cc2ncc(C(F)(F)F)cc2C(F)(F)F)c2ccc(F)cc2)nn1;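 also: spheroids exposed to compounds for seven days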;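 as to viability, T/C: 100% = DMSO vehicle control viability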", "values": [{"measurement": "IC50", "setting": "second compound 0.0316 µM", "result": "> 10", "unit": "µM"}, {"measurement": "IC50", "setting": "second compound 0.1 µM", "result": "> 10", "unit": "µM"}, {"measurement": "IC50", "setting": "second compound 0.316 µM", "result": "> 10", "unit": "µM"}, {"measurement": "IC50", "setting": "second compound 1 µM", "result": "> 10", "unit": "µM"}, {"measurement": "IC50", "setting": "second compound 3.16 µM", "result": "> 10", "unit": "µM"}, {"measurement": "IC50", "setting": "second compound 10 µM", "result": "> 10", "unit": "µM"}, {"measurement": "viability, T/C", "setting": "second compound 0.0316 µM, first compound 0.0316 µM", "result": 103, "unit": "%"}, {"measurement": "viability, T/C", "setting": "second compound 0.0316 µM, first compound 0.1 µM", "result": 105, "unit": "%"}, {"measurement": "viability, T/C", "setting": "second compound 0.0316 µM, first compound 0.316 µM", "result": 112, "unit": "%"}, {"measurement": "viability, T/C", "setting": "second compound 0.0316 µM, first compound 1 µM", "result": 110, "unit": "%"}, {"measurement": "viability, T/C", "setting": "second compound 0.0316 µM, first compound 3.16 µM", "result": 100, "unit": "%"}, {"measurement": "viability, T/C", "setting": "second compound 0.0316 µM, first compound 10 µM", "result": 91.4, "unit": "%"}, {"measurement": "viability, T/C", "setting": "second compound 0.1 µM, first compound 0.0316 µM", "result": 106, "unit": "%"}, {"measurement": "viability, T/C", "setting": "second compound 0.1 µM, first compound 0.1 µM", "result": 109, "unit": "%"}, {"measurement": "viability, T/C", "setting": "second compound 0.1 µM, first compound 0.316 µM", "result": 115, "unit": "%"}, {"measurement": "viability, T/C", "setting": "second compound 0.1 µM, first compound 1 µM", "result": 107, "unit": "%"}, {"measurement": "viability, T/C", "setting": "second compound 0.1 µM, first compound 3.16 µM", "result": 108, "unit": "%"}, {"measurement": "viability, T/C", "setting": "second compound 0.1 µM, first compound 10 µM", "result": 81.9, "unit": "%"}, {"measurement": "viability, T/C", "setting": "second compound 0.316 µM, first compound 0.0316 µM", "result": 114, "unit": "%"}, {"measurement": "viability, T/C", "setting": "second compound 0.316 µM, first compound 0.1 µM", "result": 112, "unit": "%"}, {"measurement": "viability, T/C", "setting": "second compound 0.316 µM, first compound 0.316 µM", "result": 103, "unit": "%"}, {"measurement": "viability, T/C", "setting": "second compound 0.316 µM, first compound 1 µM", "result": 110, "unit": "%"}, {"measurement": "viability, T/C", "setting": "second compound 0.316 µM, first compound 3.16 µM", "result": 106, "unit": "%"}, {"measurement": "viability, T/C", "setting": "second compound 0.316 µM, first compound 10 µM", "result": 91.8, "unit": "%"}, {"measurement": "viability, T/C", "setting": "second compound 1 µM, first compound 0.0316 µM", "result": 102, "unit": "%"}, {"measurement": "viability, T/C", "setting": "second compound 1 µM, first compound 0.1 µM", "result": 98.9, "unit": "%"}, {"measurement": "viability, T/C", "setting": "second compound 1 µM, first compound 0.316 µM", "result": 116, "unit": "%"}, {"measurement": "viability, T/C", "setting": "second compound 1 µM, first compound 1 µM", "result": 106, "unit": "%"}, {"measurement": "viability, T/C", "setting": "second compound 1 µM, first compound 3.16 µM", "result": 115, "unit": "%"}, {"measurement": "viability, T/C", "setting": "second compound 1 µM, first compound 10 µM", "result": 82.4, "unit": "%"}, {"measurement": "viability, T/C", "setting": "second compound 3.16 µM, first compound 0.0316 µM", "result": 107, "unit": "%"}, {"measurement": "viability, T/C", "setting": "second compound 3.16 µM, first compound 0.1 µM", "result": 100, "unit": "%"}, {"measurement": "viability, T/C", "setting": "second compound 3.16 µM, first compound 0.316 µM", "result": 105, "unit": "%"}, {"measurement": "viability, T/C", "setting": "second compound 3.16 µM, first compound 1 µM", "result": 104, "unit": "%"}, {"measurement": "viability, T/C", "setting": "second compound 3.16 µM, first compound 3.16 µM", "result": 96, "unit": "%"}, {"measurement": "viability, T/C", "setting": "second compound 3.16 µM, first compound 10 µM", "result": 79.6, "unit": "%"}, {"measurement": "viability, T/C", "setting": "second compound 10 µM, first compound 0.0316 µM", "result": 99.7, "unit": "%"}, {"measurement": "viability, T/C", "setting": "second compound 10 µM, first compound 0.1 µM", "result": 90.1, "unit": "%"}, {"measurement": "viability, T/C", "setting": "second compound 10 µM, first compound 0.316 µM", "result": 101, "unit": "%"}, {"measurement": "viability, T/C", "setting": "second compound 10 µM, first compound 1 µM", "result": 108, "unit": "%"}, {"measurement": "viability, T/C", "setting": "second compound 10 µM, first compound 3.16 µM", "result": 95.4, "unit": "%"}, {"measurement": "viability, T/C", "setting": "second compound 10 µM, first compound 10 µM", "result": 88, "unit": "%"}]}
